From patent US5482967A, “Condensed heterocyclic compounds, their production and use” (Takeda Chemical Industries, Ltd., priority 1992, dated 1996)

Molecular target: T1, acyl-CoA:cholesterol acyl transferase (ACAT) (Rattus norvegicus, UniProt Q7TQM4)
T1 construct: small intestine mucosal microsome fraction of a 6-week-old male Sprague-Dawley rat; from tissue; host or cells: rat small intestine mucosa, microsome fraction
T1 sequence (Q7TQM4 1-524): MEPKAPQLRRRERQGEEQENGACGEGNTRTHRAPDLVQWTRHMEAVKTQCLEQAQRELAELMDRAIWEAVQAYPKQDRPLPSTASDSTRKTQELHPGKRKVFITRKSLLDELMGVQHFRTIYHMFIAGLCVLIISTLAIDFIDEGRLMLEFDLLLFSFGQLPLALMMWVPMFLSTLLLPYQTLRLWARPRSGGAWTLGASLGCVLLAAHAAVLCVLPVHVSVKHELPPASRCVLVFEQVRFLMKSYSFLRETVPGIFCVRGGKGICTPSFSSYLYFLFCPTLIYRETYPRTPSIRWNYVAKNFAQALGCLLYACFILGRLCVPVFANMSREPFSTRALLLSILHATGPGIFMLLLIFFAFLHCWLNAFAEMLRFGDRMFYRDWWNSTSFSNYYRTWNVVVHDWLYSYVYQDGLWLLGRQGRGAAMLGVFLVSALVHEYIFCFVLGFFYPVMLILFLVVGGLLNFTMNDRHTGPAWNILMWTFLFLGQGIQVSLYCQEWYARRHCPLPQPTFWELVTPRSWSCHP
Assay: Inhibitory action against acyl-CoA:cholesterol acyl transferase (ACAT), formation of labeled cholesterol ester, small intestine mucosal microsome fraction
Format: biochemical, male Sprague-Dawley rat
Conditions: 10^-6 M; read-out: ACAT Inhibitory Rate (%)
Procedure: An ACAT enzyme preparation was prepared from a small intestine mucosal microsome fraction of a 6-week-old male Sprague-Dawley rat, previously fasted for 20 hours, in accordance with the method described by Heider et al. in the Journal of Lipid Research, Vol. 24, page 1127 (1982).
ACAT activity was determined by measuring the amount of labeled cholesterol ester produced from [1-^14 C]-oleoyl-CoA and endogenous cholesterol, in accordance with the method of Helgerud et al. [Journal of Lipid Research, Vol. 22, page 271 (1981)].

SMILES	inhibition at 1 µM [%]
CC(C)c1cccc(C(C)C)c1NC(=O)C[C@@H]1C(=O)N(C)c2ccc(Cl)cc2[C@H]1c1ccccc1 (relative stereo) [Example 33, 3,4-trans-N-[2,6-Bis(1-methylethyl)phenyl]-6-chloro-1,2,3,4-tetrahydro-1-methyl-2-oxo-4-phenyl-3-quinolineacetamide]	98.9
CC(C)c1cccc(C(C)C)c1NC(=O)C[C@H]1CN(C)c2ccc(Cl)cc2[C@H]1c1ccccc1 (relative stereo) [Example 36, 3,4-cis-N-[2,6-Bis(1-methylethyl)phenyl]-6-chloro-1,2,3,4-tetrahydro-1-methyl-4-phenyl-3-quinolineacetamide]	98.8
Cc1ccc2c(c1)[C@@H](c1ccccc1)[C@H](CC(=O)Nc1c(C(C)C)cccc1C(C)C)C(=O)N2C (relative stereo) [Example 60, 3,4-trans-N-[2,6-Bis(1-methylethyl)phenyl]-1,2,3,4-tetrahydro-1,6-dimethyl-2-oxo-4-phenyl-3-quinolineacetamide]	99.9
COc1cc2c(cc1OC)N(C)C(=O)C(CC(=O)Nc1c(C(C)C)cccc1C(C)C)C2c1ccccc1 (centres unmarked) [Example 18, N-[2,6-Bis(1-methylethyl)phenyl]-1,2,3,4-tetrahydro-6,7-dimethoxy-1-methyl-2-oxo-4-phenyl-3-quinolineacetamide]	97.3
CC(C)c1cccc(C(C)C)c1NC(=O)CC1C(=O)N(C)c2ccc(Cl)cc2C1(C)c1ccccc1 (centres unmarked) [Example 19, N-[2,6-Bis-(1-methylethyl)phenyl]-6-chloro-1,2,3,4-tetrahydro-1,4-dimethyl-2-oxo-4-phenyl-3-quinolineacetamide]	99.1
CC(C)c1cccc(C(C)C)c1NC(=O)CC1C(=O)N(C)c2ccc(Cl)cc2N1c1ccccc1 (centres unmarked) [Example 42, N-[2,6-Bis(1-methylethyl)phenyl]-6-chloro-1,2,3,4-tetrahydro-1-methyl-2-oxo-4-phenyl-3-quinoxalineacetamide]	96.6
COc1cc(OC)c(NC(=O)CC2C(=O)N(C)c3ccc(Cl)cc3N2c2ccccc2)c(OC)c1 (centres unmarked) [Example 43, 6-Chloro-1,2,3,4-tetrahydro-1-methyl-2-oxo-4-phenyl-N-(2,4,6-trimethoxyphenyl)-3-quinoxalineacetamide]	98.2
CC(C)c1cccc(C(C)C)c1NC(=O)Cc1c(-c2ccccc2)c2cc(Cl)ccc2n(C)c1=O [Example 45, N-[2,6-Bis(1-methylethyl)phenyl]-6-chloro-1,2-dihydro-1-methyl-2-oxo-4-phenyl-3-quinolineacetamide]	99.5
Cc1cc2c(-c3ccccc3)c(CC(=O)Nc3c(C(C)C)cccc3C(C)C)n(C)c(=O)c2cc1C [Example 47, N-[2,6-Bis(1-methylethyl)phenyl]-1,2-dihydro-2,6,7-trimethyl-1-oxo-4-phenyl-3-isoquinolineacetamide]	90.3
O=C(Cc1oc(=O)c2ccc(Cl)cc2c1-c1ccccc1)Nc1ccc(F)cc1F [Example 49, 6-Chloro-N-(2,4-difluorophenyl)-1-oxo-4-phenyl-1H-2-benzopyran-3-acetamide]	92.8
Cc1ccc2oc(=O)c(CC(=O)Nc3c(C(C)C)cccc3C(C)C)c(-c3ccccc3)c2c1 [Example 53, N-[2,6-Bis(1-methylethyl)phenyl]-6-methyl-2-oxo-4-phenyl-2H-1-benzopyran-3-acetamide]	99.7
Cc1ccc2oc(=O)c(CC(=O)Nc3ccc(F)cc3F)c(-c3ccccc3)c2c1 [Example 55, N-(2,4-Difluorophenyl)-6-methyl-2-oxo-4-phenyl-2H-1-benzopyran-3-acetamide]	97.9
COc1ccccc1-c1c(CC(=O)Nc2c(C(C)C)cccc2C(C)C)oc(=O)c2ccccc12 [Example 56, N-[2,6-Bis(1-methylethyl)phenyl]-4-(2-methoxyphenyl)-1-oxo-1H-2-benzopyran-3-acetamide]	98.1
CC(C)c1cccc(C(C)C)c1NC(=O)Cc1cnc2ccc(Cl)cc2c1-c1ccccc1 [Example 57, N-[2,6-Bis(1-methylethyl)phenyl]-6-chloro-4-phenyl-3-quinolineacetamide]	99.3
Cc1ccc2c(c1)N(c1ccccc1)C(CC(=O)Nc1c(C(C)C)cccc1C(C)C)C(=O)N2C (centres unmarked) [Example 64, N-[2,6-Bis(1-methylethyl)phenyl]-1,2,3,4-tetrahydro-1,6-dimethyl-2-oxo-4-phenyl-3-quinoxalineacetamide]	99.5
Cc1ccccc1-c1c(CC(=O)Nc2ccc(F)cc2F)c(=O)oc2ccc(Cl)cc12 [Example 83, 6-Chloro-N-(2,4-difluorophenyl)-4-(2-methylphenyl)-2-oxo-2H-1-benzopyran-3-acetamide]	99.4
Cc1cc(C)c(NC(=O)Cc2c(-c3ccccc3C)c3cc(Cl)ccc3oc2=O)c(C)c1 [Example 87, 6-Chloro-4-(2-methylphenyl)-2-oxo-N-(2,4,6-trimethylphenyl)-2H-1-benzopyran-3-acetamide]	99.3
CCOc1cc(F)cc(OCC)c1NC(=O)Cc1c(-c2ccccc2C)c2cc(Cl)ccc2oc1=O [Example 89, 6-Chloro-N-(2,6-diethoxy-4-fluorophenyl)-4-(2-methylphenyl)-2-oxo-2H-1-benzopyran-3-acetamide]	98.2
CC(C)c1cccc(C(C)C)c1NC(=O)Cc1c(-c2ccccc2C(F)(F)F)c2cc(Cl)ccc2oc1=O [Example 94, N-[2,6-Bis(1-methylethyl)phenyl]-6-chloro-2-oxo-4-(2-trifluoromethylphenyl)-2H-1-benzopyran-3-acetamide]	98.6
CCOc1cccc(OCC)c1NC(=O)Cc1c(-c2ccccc2C(F)(F)F)c2cc(Cl)ccc2oc1=O [Example 95, 6-Chloro-N-(2,6-diethoxyphenyl)-2-oxo-4-(2-trifluoromethylphenyl)-2H-1-benzopyran-3-acetamide]	99.1
CCOc1cc(F)cc(OCC)c1NC(=O)Cc1c(-c2ccccc2C(F)(F)F)c2cc(Cl)ccc2oc1=O [Example 96, 6-Chloro-N-(2,6-diethoxy-4-fluorophenyl)-2-oxo-4-(2-trifluoromethylphenyl)-2H-1-benzopyran-3-acetamide]	99.3
CC(C)c1cccc(C(C)C)c1NC(=O)CC1=C(c2ccccc2)c2cc(Cl)ccc2N(C)C1 [Example 99, N-[2,6-Bis(1-methylethyl)phenyl]-6-chloro-1,2-dihydro-1-methyl-4-phenyl-3-quinolineacetamide]	97

Results, then the compound that gave them:

inhibition at 1 µM [%]	SMILES
95.7	CC(C)c1cccc(C(C)C)c1NC(=O)Cc1c(-c2ccccc2)c2cc(Cl)ccc2oc1=O [Example 50, N-[2,6-Bis(1-methylethyl)phenyl]-6-chloro-2-oxo-4-phenyl-2H-1-benzopyran-3-acetamide]
98.1	COc1cc(OC)c(NC(=O)Cc2c(-c3ccccc3)c3cc(Cl)ccc3oc2=O)c(OC)c1 [Example 51, 6-Chloro-2-oxo-4-phenyl-N-(2,4,6-trimethoxyphenyl)-2H-1-benzopyran-3-acetamide]
90.4	O=C(Cc1c(-c2ccccc2)c2cc(Cl)ccc2oc1=O)Nc1ccc(F)cc1F [Example 52, 6-Chloro-N-(2,4-difluorophenyl)-2-oxo-4-phenyl-2H-1-benzopyran-3-acetamide]
98.4	COc1cc(OC)c(NC(=O)Cc2c(-c3ccccc3)c3cc(C)ccc3oc2=O)c(OC)c1 [Example 54, 6-Methyl-2-oxo-4-phenyl-N-(2,4,6-trimethoxyphenyl)-2H-1-benzopyran-3-acetamide]
99.3	COc1cccc(OC)c1NC(=O)Cc1oc(=O)c2ccc(Cl)cc2c1-c1ccccc1 [Example 76, 6-Chloro-N-(2,6-dimethoxyphenyl)-1-oxo-4-phenyl-1H-2-benzopyran-3-acetamide]
99.1	COc1cccc(OC)c1NC(=O)Cc1c(-c2ccccc2)c2cc(Cl)ccc2oc1=O [Example 79, 6-Chloro-N-(2,6-dimethoxyphenyl)-2-oxo-4-phenyl-2H-1-benzopyran-3-acetamide]
99.5	COc1cc(OC)c(NC(=O)Cc2c(-c3ccccc3C)c3cc(Cl)ccc3oc2=O)c(OC)c1 [Example 85, 6-Chloro-4-(2-methylphenyl)-2-oxo-N-(2,4,6-trimethoxyphenyl)-2H-1-benzopyran-3-acetamide]
99.7	CCOc1cccc(OCC)c1NC(=O)Cc1c(-c2ccccc2C)c2cc(Cl)ccc2oc1=O [Example 88, 6-Chloro-N-(2,6-diethoxyphenyl)-4-(2-methylphenyl)-2-oxo-2H-1-benzopyran-3-acetamide]
98.2	COc1ccccc1-c1c(CC(=O)Nc2c(C(C)C)cccc2C(C)C)c(=O)oc2ccc(Cl)cc12 [Example 92, N-[2,6-Bis(1-methylethyl)phenyl]-6-chloro-4-(2-methoxyphenyl)-2-oxo-2H-1-benzopyran-3-acetamide]
99	CCOc1cccc(OCC)c1NC(=O)Cc1c(-c2ccccc2OC)c2cc(Cl)ccc2oc1=O [Example 93, 6-Chloro-N-(2,6-diethoxyphenyl)-4-(2-methoxyphenyl)-2-oxo-2H-1-benzopyran-3-acetamide]
